What is called MIC is the least concentration at which growth counts as inhibited. A high value points to a less susceptible organism. As usually defined, the MBC is the smallest concentration meeting the test's criterion for killing. Higher therefore signals weaker bactericidal potency.

The source of these data is patent publication US20220315908A1, “NOVEL GARDNERELLA ENDOLYSINS AND USES THEREOF” (priority 2019, published 2022).

Converted amounts (≈) assume the structure as drawn.

The experiment relates to G. vaginalis (Gv_9). As to the kind of experiment: MIC and MBC microbroth dilution. It is filed as cell-based, Gardnerella vaginalis. As to conditions: for MIC / MBC: Gardnerella vaginalis; for MIC: 48 h. The procedure: One of the main deficiencies in the treatment of BV is the high rate of recurrence in many women, which leads to repeated administration of antibiotics and concomitant destabilization of the microbiome and other side effects. The minimal inhibitory concentration (MIC) and minimal bactericidal concentration (MBC) on Gardnerella cells of the strains also used for the endolysin activity assays were then measured using the method described in Reference Example 6 and 7. […] Essentially, Gardnerella suspensions at 2.5×10^7 CFU/ml were incubated with the concentration of antibiotics as indicated and incubated for 48 h at 37° C. under anaerobic conditions. […] OD(610) was measured at the beginning and the end of the experiment. At the end of the experiment, 2 ul of each reaction mix was spotted on agar to determine the MBC.
The conditions under which MIC and MBC were measured are more rigorous than the standard.
Example 7—Activity assays of a representative (H2B10) of domain swapped endolysins on the growth in suspension of different Gardnerella strains. […] The conditions under which MBC was measured are more rigorous than the standard. […] In general, it is known, that antibiotics only insufficiently eradicate the Gardnerella biofilm, a hallmark of BV, which is one suspected reason for the reported very high recurrence rate of BV. Despite leaving residual viable biofilm, antibiotics wipe parts of the beneficial organisms of the vaginal microbiome which then opens an ecological niche for other pathogens, e.g. fungi.
Bacteria were plated from cryo stock on BD Choc Agar plates (Gardnerella) and incubated at 37° C. for 48 h under anaerobic conditions. Colonies were scraped from the plate, resuspended in Hardy Broth or NYC-III-HS-pH 5.0, and the suspension adjusted to OD (610 or 620 nm as indicated) 0.05. It has to be noted that two Tecan Microplate readers, having respectively a 610 nm or 620 nm filter, have been used interchangeably in the experiments. Although it doesn't make any difference for the experiments, the exact wavelength used is specified in each example. Antibiotics were prepared as 20× stocks for each of the required final concentrations. 95 μl of cell suspension was mixed with 5 μl antibiotics dilution in a 384-well plate. OD (610-620 as indicated) at the start of the reaction was measured, then the plate was incubated at 37° C. for 48 h under anaerobic conditions. After that, the OD (610-620 as indicated) was measured again for MIC determination, where MIC was defined as the lowest concentration of antibiotic where the OD (610-620 as indicated) was not above the level measured at the beginning of the experiment. After measuring OD, 2 μl of each well were spotted on a NYC-III+HS Agar plate. The plates were then incubated for further 48 h at 37° C. under anaerobic conditions. After incubation, cell growth on each spot was evaluated, and the MBC defined as the lowest concentration of antibiotics where no bacteria grew on the plate. The experiments were conducted in triplicate for each condition. In the second round of MIC and MBC experiments with antibiotics the Gardnerella cell suspension was adjusted to the McFarland standard 0.5 (approximately OD (610) 0.07) and then diluted 1:75 according to the CLSI (Clinical and Laboratory Standards Institute) standards. Antibiotics were prepared according to the CLSI standards and 50 μl of cell suspension was mixed in a 96-well plate with 50 μl antibiotics. Otherwise the MIC and MBC was determined as described above.
(In general: Dilution methods test growth across graded concentrations, often in twofold steps.)

As to `Cc1ncc([N+](=O)[O-])n1CCO` [Metronidazole], the MIC by setting is: (first round: […]10^7 CFU/ml, Hardy broth, 384-well, 48 h 37° C. anaerobic) 128 µg/mL (≈ 748 µM); (second round: 1×10^5-1×10^6 CFU/ml (CLSI), NYC-III broth, 96-well, 48 h anaerobic) 8 µg/mL (≈ 46.7 µM). The same molecule registered an MBC (first round: […]10^7 CFU/ml, minimal concentration fully eradicating the suspension) of more than 128 µg/mL and an MBC (second round: 1×10^5-1×10^6 CFU/ml (CLSI), NYC-III broth, 96-well) of 16 µg/mL (≈ 93.5 µM). For the same molecule, the “resistance class of MIC, Metronidazole” value (first round) was “R (>=32 μg/mi for Metronidazole)”. Further, the “resistance class given with MBC, Metronidazole” value (second round) was “R (>=32 μg/mi for Metronidazole)”.
